This is an account of results in patent publication US8604044B2, “Quinazoline based EGFR inhibitors containing a zinc binding moiety” (Curis, Inc., priority 2006, dated 2013).

Each structure is given as a SMILES string.

The test system of this assay is HDAC. The assay is described as follows: HDAC fluorimetric assay (HDAC enzymatic activity, HeLa nuclear extract). It is filed as biochemical. Conditions: HeLa nuclear extract; read-out: HDAC IC50 grading. As to the method: HDAC inhibitors were screened using an HDAC fluorimetric assay kit (AK-500, Biomol, Plymouth Meeting, Pa.).
Each assay was setup as follows: Defrosted all kit components and kept on ice until use. […] Prepared dilutions of Trichostatin A (TSA, positive control) and tested compounds in assay buffer (5× of final concentration). Diluted Fluor de Lys™ Substrate in assay buffer to 100 uM (50 fold=2× final). Diluted Fluor de Lys™ developer concentrate 20-fold (e.g. 50 μl plus 950 μl Assay Buffer) in cold assay buffer. Second, diluted the 0.2 mM Trichostatin A 100-fold in the 1× Developer (e.g. 10 μl in 1 ml; final Trichostatin A concentration in the 1× Developer=2 μM; final concentration after addition to HDAC/Substrate reaction=1 μM). Added Assay buffer, diluted trichostatin A or test inhibitor to appropriate wells of the microtiter plate. Added diluted HeLa extract or other HDAC sample to all wells except for negative controls.
Usually IC50 stands for the concentration that gives 50% inhibition. Regarding `COc1cc2ncnc(Nc3ccc(F)c(Cl)c3)c2cc1NC(=O)CCCC(=O)NO` [Compound 38, N^1-(4-(3-chloro-4-fluorophenylamino)-7-methoxyquinazolin-6-yl)-N^5-hydroxyglutaramide], the IC50 is 1 to 10 µM.
Regarding `O=C(CCCCCOc1ccc2ncnc(Nc3ccc(F)c(Cl)c3)c2c1)NO` [Compound 17, 6-(4-(3-Chloro-4-fluorophenylamino)quinazolin-6-yloxy)-N-hydroxyhexanamide], the IC50 is less than 0.1 µM.
As for `COc1cc2ncnc(Nc3ccc(F)c(Cl)c3)c2cc1OCCC(=O)NO` [Compound 2], the IC50 is more than 10 µM.
On to `COc1cc2ncnc(N[C@H](C)c3ccccc3)c2cc1OCCCCCC(=O)NO` [Compound 77, (R)—N-hydroxy-6-(7-methoxy-4-(1-phenylethylamino)quinazolin-6-yloxy)-hexanamide], for which the half-inhibitory concentration (IC50) was less than 0.1 µM.
Regarding `C#Cc1cccc(Nc2ncnc3cc(OC)c(NC(=O)CCCCC(=O)NO)cc23)c1` [Compound 43, N^1-(4-(3-ethynylphenylamino)-7-methoxyquinazolin-6-yl)-N^6-hydroxyadipamide], the IC50 was 0.1 to 1 µM.
As to `C#Cc1cccc(Nc2ncnc3cc(OC)c(OCCC(=O)NO)cc23)c1` [Compound 8], the IC50 is more than 10 µM.
The value for `C#Cc1cccc(Nc2ncnc3ccc(OCCCCC(=O)NO)cc23)c1` [Compound 22] was less than 0.1 µM; that for `COc1cc2ncnc(NCc3ccc(F)cc3)c2cc1OCCCCCCC(=O)NO` [Compound 86, 7-(4-(4-fluorobenzylamino)-7-methoxyquinazolin-6-yloxy)-N-hydroxyheptanamide] was less than 0.1 µM.
For the compound `O=C(/C=C/c1ccc(OCCOc2ccc3ncnc(Nc4ccc(F)c(Cl)c4)c3c2)cc1)NO` [Compound 63], the 50% inhibitory concentration (IC50) lay in the range of 0.1 to 1 µM.
As for `C#Cc1cccc(Nc2ncnc3cc(OC)c(OCCCC(=O)NO)cc23)c1` [Compound 9, 4-(4-(3-ethynylphenylamino)-7-methoxyquinazolin-6-yloxy)-N-hydroxybutanamide], the half-maximal inhibitory concentration (IC50) lay in the range of 0.1 to 1 µM.
The figure for `O=C(COc1ccc2ncnc(Nc3ccc(F)c(Cl)c3)c2c1)NO` [Compound 13, 2-(4-(3-chloro-4-fluorophenylamino)quinazolin-6-yloxy)-N-hydroxyacetamide] is more than 10 µM; for `COc1cc2ncnc(N[C@@H](C)c3ccccc3)c2cc1OCCCCCCC(=O)NO` [Compound 80, (S)—N-hydroxy-7-(7-methoxy-4-(1-phenylethylamino)quinazolin-6-yloxy)heptanamide] it is less than 0.1 µM.
As to `COc1cc2ncnc(Nc3ccc(F)c(Cl)c3)c2cc1CCCCC(=O)NO` [Compound 144, 5-(4-(3-chloro-4-fluorophenylamino)-7-methoxyquinazolin-6-yl)-N-hydroxypentanamide], the 50% inhibitory concentration (IC50) fell in the range of 0.1 to 1 µM.
Turning to `COc1cc2ncnc(Nc3ccc(F)c(Cl)c3)c2cc1OCCCC(=O)NO` [Compound 3, 4-(4-(3-Chloro-4-fluorophenylamino)-7-methoxyquinazolin-6-yloxy)-N-hydroxybutanamide], the half-maximal inhibitory concentration (IC50) was more than 10 µM.
The figure for `C#Cc1cccc(Nc2ncnc3cc(OCCOC)c(OCCCCCCC(=O)NO)cc23)c1` [Compound 36, 7-(4-(3-Ethynylphenylamino)-7-(2-methoxyethoxy)quinazolin-6-yloxy)-N-hydroxyheptanamide] is less than 0.1 µM; for `C[C@@H](Nc1ncnc2ccc(OCCCCCC(=O)NO)cc12)c1ccccc1` [Compound 50] it is 0.1 to 1 µM.
For `C#Cc1cccc(Nc2ncnc3cc(OC)c(OCCCCC(=O)NO)cc23)c1` [Compound 10, 5-(4-(3-Ethynylphenylamino)-7-methoxyquinazolin-6-yloxy)-N-hydroxypentanamide], the IC50 fell in the range of 0.1 to 1 µM.
Turning to `O=C(CCOc1ccc2ncnc(Nc3ccc(F)c(Cl)c3)c2c1)NO` [Compound 14], the IC50 lay in the range of 1 to 10 µM.
On to `COc1cc2ncnc(Nc3ccc(F)c(Cl)c3)c2cc1-c1ccc(C#CCCCC(=O)NO)o1` [Compound 125], for which the IC50 is 0.1 to 1 µM.
Turning to `COc1cc2ncnc(Nc3ccc(F)c(Cl)c3)c2cc1C#CCCCC(=O)NO` [Compound 139, 6-(4-(3-chloro-4-fluorophenylamino)-7-methoxyquinazolin-6-yl)-N-hydroxyhex-5-ynamide], the concentration for half-maximal inhibition (IC50) was 1 to 10 µM.
As for `COc1cc2ncnc(NCCc3ccccc3)c2cc1OCCCCCCC(=O)NO` [Compound 84], the IC50 is less than 0.1 µM.
The value for `COc1cc2ncnc(Nc3ccc(F)c(Cl)c3)c2cc1OCC(=O)NO` [Compound 1, 2-(4-(3-Chloro-4-fluorophenylamino)-7-methoxyquinazolin-6-yloxy)-N-hydroxyacetamide] was more than 10 µM.
As to `COc1cc2ncnc(Nc3ccc(F)c(Cl)c3)c2cc1OCCCCCCN(O)C(C)=O` [Compound 103, N-(6-(4-(3-chloro-4-fluorophenylamino)-7-methoxyquinazolin-6-yloxy)hexyl)-N-hydroxyacetamide], the concentration for half-maximal inhibition (IC50) is more than 10 µM.
For the compound `COc1ccc([C@@H](C)Nc2ncnc3cc(OC)c(OCCCCCCC(=O)NO)cc23)cc1` [Compound 83, (R)—N-hydroxy-7-(7-methoxy-4-(1-(4-methoxyphenyl)ethylamino)quinazolin-6-yloxy)-heptanamide], the IC50 was less than 0.1 µM.
Turning to `COc1cc2ncnc(Nc3ccc(F)c(Cl)c3)c2cc1OCCCCCCC(=O)N(C)O` [Compound 94], the IC50 is more than 10 µM.
For the compound `COc1cc2ncnc(Nc3ccc(F)c(Cl)c3)c2cc1OCCCCC(=O)NO` [Compound 4], the half-inhibitory concentration (IC50) is 0.1 to 1 µM.
As for `COCCOc1cc2ncnc(Nc3ccc(F)c(Cl)c3)c2cc1NC(=O)CCCCC(=O)NO` [Compound 69, N^1-(4-(3-chloro-4-fluorophenylamino)-7-(2-methoxyethoxy)quinazolin-6-yl)-N^6-hydroxyadipamide], the IC50 was 0.1 to 1 µM.
Consider `COc1cc2ncnc(Nc3ccc(F)c(Cl)c3)c2cc1OCCCCCC(=O)NO` [Compound 5], for which the IC50 was less than 0.1 µM.
`COc1cc2ncnc(Nc3ccc(F)c(Cl)c3)c2cc1C#CCCC(=O)NO` [Compound 138]: the IC50 was 1 to 10 µM.
For the compound `COc1cc2ncnc(Nc3ccc(F)c(Cl)c3)c2cc1Oc1ccc(C#CCCCC(=O)NO)cc1` [Compound 205], the concentration for half-maximal inhibition (IC50) was 1 to 10 µM.
The figure for `C#Cc1cccc(Nc2ncnc3cc(OC)c(NC(=O)CCCC(=O)NO)cc23)c1` [Compound 42, N^1-(4-(3-ethynylphenylamino)-7-methoxyquinazolin-6-yl)-N^5-hydroxyglutaramide] is 0.1 to 1 µM; for `COc1cc2ncnc(Nc3ccc(F)c(Cl)c3)c2cc1NC(=O)Nc1ccc(C(=O)NO)cc1` [Compound 93] it is 1 to 10 µM; for `COc1cc2ncnc(Nc3ccc(F)c(Cl)c3)c2cc1OCCOc1ccc(CC(=O)NO)cc1` [Compound 91] it is 1 to 10 µM.
`COc1cc2ncnc(Nc3ccc(F)c(Cl)c3)c2cc1OCCNCc1ccc(C#CC(=O)NO)cc1` [Compound 121]: the IC50 was more than 10 µM.
As to `C#Cc1cccc(CNc2ncnc3cc(OC)c(OCCCCCCC(=O)NO)cc23)c1` [Compound 90, 7-(4-(3-ethynylbenzylamino)-7-methoxyquinazolin-6-yloxy)-N-hydroxyheptanamide], the half-inhibitory concentration (IC50) was less than 0.1 µM.
Take `COc1cc2ncnc(Nc3ccc(F)c(Cl)c3)c2cc1OCCOc1ccc(/C=C/C(=O)NO)cc1` [Compound 66, (E)-3-(4-(2-(4-(3-chloro-4-fluorophenylamino)-7-methoxyquinazolin-6-yloxy)ethoxy)phenyl)-N-hydroxyacrylamide]: the IC50 was in the range of 0.1 to 1 µM.
With `COc1cc2ncnc(Nc3ccc(F)c(Cl)c3)c2cc1-c1ccc(C#CCCC(=O)NO)o1` [Compound 124], the IC50 was more than 10 µM.
Take `COc1cc2ncnc(NCc3ccc(F)c(F)c3)c2cc1OCCCCCCC(=O)NO` [Compound 87, 7-(4-(3,4-difluorobenzylamino)-7-methoxyquinazolin-6-yloxy)-N-hydroxyheptanamide]: the IC50 was less than 0.1 µM.
The figure for `Nc1cc(Br)ccc1NC(=O)COc1ccc2ncnc(Nc3ccc(F)c(Cl)c3)c2c1` [Compound 45] is more than 10 µM.
`COc1cc2ncnc(Nc3ccc(F)c(Cl)c3)c2cc1OCCNCc1ccc(C(=O)NO)cc1` [Compound 107]: the IC50 was 0.1 to 1 µM.
As to `COc1cc2ncnc(Nc3ccc(F)c(Cl)c3)c2cc1OCCN(CCO)CCCC(=O)NO` [Compound 118], the IC50 fell in the range of 1 to 10 µM.
With `COc1cc2ncnc(N[C@H](C)c3ccc(Cl)cc3)c2cc1OCCCCCCC(=O)NO` [Compound 82, (R)-7-(4-(1-(4-chlorophenyl)ethylamino)-7-methoxyquinazolin-6-yloxy)-N-hydroxyheptanamide], the half-maximal inhibitory concentration (IC50) fell in the range of 0.1 to 1 µM.
`COc1cc2ncnc(NCc3cccc(Br)c3)c2cc1OCCCCCCC(=O)NO` [Compound 89, 7-(4-(3-bromobenzylamino)-7-methoxyquinazolin-6-yloxy)-N-hydroxyheptanamide]: the IC50 was less than 0.1 µM.
As to `COCCOc1cc2ncnc(Nc3ccc(F)c(Cl)c3)c2cc1NC(=O)CCCC(=O)NO` [Compound 68, N^1-(4-(3-chloro-4-fluorophenylamino)-7-(2-methoxyethoxy)quinazolin-6-yl)-N^5-hydroxyglutaramide], the IC50 lay within 1 to 10 µM.
The value for `C#Cc1cccc(Nc2ncnc3ccc(OCCCCCCC(=O)NO)cc23)c1` [Compound 24, 7-(4-(3-ethynylphenylamino)quinazolin-6-yloxy)-N-hydroxyheptanamide] was less than 0.1 µM; that for `C[C@@H](Nc1ncnc2ccc(OCCCCCC(=O)NO)cc12)c1ccccc1` [Compound 78, (R)—N-hydroxy-6-(4-(1-phenylethylamino)-quinazolin-6-yloxy)hexanamide] was less than 0.1 µM.
